Patent publication US20250376441A1, “NOVEL COMPOUND AND PHARMACEUTICAL COMPOSITION COMPRISING SAME AS ACTIVE INGREDIENT” (Industry-Academic Cooperation Foundation, Yonsei University, priority 2017, published 2025)

What was measured:
[1] = tested on: Salmonella typhimurium TA98; assay: Ames reverse mutation test, TA98
Procedure: (§1) For each strain, treatment with a single concentration of 200 μg/plate was performed in triplicate and mutation was checked.

[2] = biological target: AMP-activated protein kinase (AMPK); assay: AMPK kinase assay (luminescence, purified enzyme, ATP, substrate peptide); type: biochemical; details: AMPK activation
Procedure: In order to identify an effect of the Preparation Example 6 having the highest docking score in Experimental Example 1 on activity of the AMP-activated protein kinase (AMPK), a kinase assay was performed. The kinase assay was performed as follows. […] Then, purified AMP-activated protein kinase and ATP were allowed to react on a substrate peptide for the AMP-activated protein kinase, and degrees of luminescence thereof were shown as EC50 in Table 3 and FIG. 3.

[3] = Half-life test
Text: In order to identify whether the Preparation Example 6 according to the present invention can be orally administered, a half-life of the compound was checked. […] The results are illustrated in FIG. 18.

[4] = tested on: Salmonella typhimurium TA100
Procedure: as §1

[5] = tested on: amyloid-beta peptide1-42 degenerative neurological disease-induced mice; assay: Probe test (Morris water maze, platform removed); type: in vivo, ICR mice; details: donepezil group, 90 seconds without platform, p<0.01 vs beta-amyloid group
Procedure: (§2) In order to induce a degenerative neurological disease, the experimental animals of Preparatory Example 1 were anesthetized by inhalation with 2.5% isoflurane. Then, 1 μg of amyloid-beta peptide1-42, a degenerative neurological disease-inducing substance, was administered to the animals at both hippocampal positions (AP: −2.3, L: ±2.0, H: −1.5) using a stereotaxic apparatus. […] For the administration, 1 μl was injected, at a flow rate of 0.2 μl/min, with a […] gas-tight glass syringe (Hamilton, Reno, NV, USA) using a perfusion pump (Pump 22, Harvard Apparatus, South Natick, MA, USA). Subsequently, the syringe was allowed to stand for 5 minutes and then removed.
(§3) Then, a degenerative neurological disease was induced as in Preparation Example 2.
(§4) A circular pool (diameter: 120 cm, height: 75 cm) was filled with water to a depth of 25±1 cm as in FIG. 4, and a 24 cm platform was prepared by hiding it 1 cm below the water surface. Space cues were installed on the four sides of the wall so that the aminals can identify locations, and skimmed milk powder was dissolved into water so that the animals cannot identify the platform with naked eyes. One day before the experiment, all the experimental animals were allowed to swim freely for 1 minute in a water bath having no platform, so that the animals can adapt to the swimming situation. After that, a test group was allowed to start, in any order, from two of the three quadrants except the quadrant where the platform was placed, and allowed to find the platform for 60 seconds. In a case where an animal finds the platform, the animal was allowed to stay thereon for 20 seconds. […] As soon as end of the position learning time, which is the 20-second staying time, the animal was allowed to start again from any quadrant, and the time and distance to reach the platform were measured. The procedure was performed four times a day, and all procedures were taken with a camera and analyzed with a video tracking system (Panlab, USA). Probe trials were made on the fifth day after the four-day experiment in toal was completed. The test group was allowed to swim freely for 90 seconds without the platform, thereby performing evaluation on whether the test group holds a memory of the platform location. The results are illustrated in FIGS. 5 to 7.
The results are illustrated in FIGS. 8 and 9.

[6] = tested on: amyloid-beta peptide1-42 degenerative neurological disease-induced mice; assay: Morris water maze test; type: in vivo, ICR mice; details: donepezil group
Text: Six-week-old ICR mice (male) were purchased, and then examined for general health for 6 days while subjecting them to quarantine and acclimation under an environment of animal breeding room. Then, healthy individuals were selected and used for the experiment. Identification of each individual was made by marking the number of each individual on the tail using a permanent marker, and identification of a breeding box was made by attaching an individual identification card on which test number, test substance name, test item, date of acquisition, acclimation period, date of grouping, test period, sex/animal number, and person in charge are indicated.
as §2, §3
After induction of the degenerative neurological disease, the following test was conducted after a one-day recovery period passed.
as §4

In the case of `O=[N+]([O-])c1ccc2c(c1)Cc1ccccc1-2` [2-Nitrofluorene, 2-nitrofluorene, reference compound], the “Reverse mutation [factor] w/o S-9 mix” value ([1]; TA98, without S-9, factor versus control) is reported as 915.0] and the “Reverse mutation/dish (mean ± SD) w/o S-9 mix” value ([1]; TA98, without S-9, Preparation Example 6 at 200 μg/plate, 2-Nitrofluorene concentration 2) is reported as 290 ± 8.
In the case of `NC(=O)c1ncn([C@@H]2O[C@H](CO)[C@@H](O)[C@H]2O)c1N` [AICAR, reference compound], the EC50 [2] is reported as 299 nM.
`Oc1ccc(C=Cc2cc(O)cc(O)c2)cc1` [Resveratrol, reference compound] gave a half-life [3] of 8 to 10 min.
With `[N-]=[N+]=[N-]` [Sodium azide, sodium azide, reference compound] the “Reverse mutation [factor] w/o S-9 mix” value ([4]; TA100, without S-9, factor versus control) was “[5.5]” and the “Reverse mutation/dish (mean ± SD) w/o S-9 mix” value ([4]; TA100, without S-9, Preparation Example 6 at 200 μg/plate, Sodium azide concentration 1) was 618 ± 13.
In the case of `COc1cc2c(cc1OC)C(=O)C(CC1CCN(Cc3ccccc3)CC1)C2` (stereo not drawn) [donepezil, reference compound], the “swimming time in the target quadrant” value [5] is reported as 39.04 (±8.68) seconds, the “maximum time to find the platform (escape latency)” value [6] is reported as 111.99 (±22.59) seconds and the “minimum time to find the platform (escape latency)” value [6] is reported as 30.82 (±13.96) seconds.
